# From US9593110B2, “Neprilysin inhibitors” (Theravence Biopharma R&D IP, LLC, priority 2014, dated 2017)
# Experiments:
# [1] = Rat PO cassette assay (oral bioavailability); type: in vivo, Sprague-Dawley rats; conditions: male, Sprague-Dawley, plasma, single oral gavage vs intravenous dose, 0.5 mg/kg
# Text: Oral bioavailability, or % F, is a measure of the percentage of a drug in an oral dose that actually reaches the systemic circulation. Compound losses can occur due to incomplete formulation dissolution, incomplete absorption due to compound insolubility or instability along the GI, or metabolism in the gut or across the gut wall. The fraction of the dose which reaches the hepatic portal vein must also then pass through the liver before reaching the systemic circulation. Compound metabolism, or “first-pass extraction,” can occur during this initial passage through the liver, and this is an additional potential source of compound loss. Oral bioavailability is calculated as the dose-normalized ratio of drug exposure after an oral dose to that after an intravenous dose, wherein the entire dose is delivered directly to the systemic circulation.
# Each cassette study begins with 10 mM DMSO stock solutions of up to 5 different compounds. Typically, compounds are selected such no two compounds dosed in the same cassette have a molecular weight within 5 Da of each other. This simplifies subsequent bioanalysis. Appropriate volumes of each DMSO stock are added into a volume of vehicle (5% sodium bicarbonate, 5% dextrose in H2O) such that the final concentration of each compound is 0.25 mg/mL. Intravenous dosing solutions are sterile-filtered (0.2 μm) prior to dosing.
# Pre-cannulated male Sprague-Dawley rats (3 per cassette per route) between 8 and 10 weeks of age were obtained from Harlan Laboratories (Indianapolis, Ind.). Rats received either a single oral gavage or a single intravenous (via lateral tail vein) dose (2 mL/kg) of the dosing solution. The final dose was 0.5 mg/kg. Serial blood samples were harvested via jugular vein cannula at 3 minutes, 15 minutes, 30 minutes, 1 hours, 2 hours, 4 hours, 6 hours, and 24 hours post-dose. Sampling was performed either manually or using automated blood samplers. Samples were collected into microtainer tubes containing EDTA as the anticoagulant and are processed to plasma by refrigerated centrifugation.
# Plasma samples were extracted with 3 volumes of MeCN containing a suitable internal standard. Extracts were reconstituted into 3 volumes of water containing 1% formic acid, and analyzed via HPLC-coupled MS/MS. Plasma concentration-time data were analyzed using the Phoenix software (Pharsight Corp., St. Louis, Mo.) to calculate pharmacokinetic parameters.
# Compounds of the invention of particular interest were those having a % F>10%, when tested in this assay.
# [2] = molecular target: human NEP (Homo sapiens (Human), UniProt P08473); assay: In vitro enzyme inhibition assay at human NEP; conditions: recombinant human NEP, fluorogenic peptide substrate, 37° C.
# Chain of human NEP (P08473 52-750): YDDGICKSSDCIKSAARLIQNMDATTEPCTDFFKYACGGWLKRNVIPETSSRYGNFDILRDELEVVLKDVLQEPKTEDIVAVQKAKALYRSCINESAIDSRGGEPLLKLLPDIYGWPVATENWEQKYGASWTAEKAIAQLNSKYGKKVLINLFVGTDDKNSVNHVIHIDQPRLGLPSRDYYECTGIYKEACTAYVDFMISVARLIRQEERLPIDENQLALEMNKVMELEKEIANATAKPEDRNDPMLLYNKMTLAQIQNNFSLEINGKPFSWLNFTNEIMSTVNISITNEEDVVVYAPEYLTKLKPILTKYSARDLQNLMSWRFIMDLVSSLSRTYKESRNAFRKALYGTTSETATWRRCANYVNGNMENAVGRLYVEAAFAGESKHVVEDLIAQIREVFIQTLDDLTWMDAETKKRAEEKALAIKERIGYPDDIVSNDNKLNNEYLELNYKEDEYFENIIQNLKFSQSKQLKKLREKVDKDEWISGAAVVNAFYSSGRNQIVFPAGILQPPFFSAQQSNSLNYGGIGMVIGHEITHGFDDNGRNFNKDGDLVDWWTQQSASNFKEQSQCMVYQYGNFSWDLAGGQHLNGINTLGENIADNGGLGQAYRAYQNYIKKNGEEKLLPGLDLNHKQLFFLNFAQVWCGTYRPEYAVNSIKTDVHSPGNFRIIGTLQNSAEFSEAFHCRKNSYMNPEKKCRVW
bioavailability [1],pKi [2],SMILES
> 10%,≧9.0,"CCOC[C@H](C[C@@H](Cc1ccc(-c2cc(Cl)ccc2F)cc1)NC(=O)c1c[nH]nn1)C(=O)O [Example 7-1, (2S,4S)-5-(5′-Chloro-2′-fluorobiphenyl-4-yl)-2-ethoxymethyl-4-[(1H-[1,2,3]triazole-4-carbonyl)amino]pentanoic acid]"
> 10%,≧9.0,"CCOC[C@H](C[C@@H](Cc1ccc(-c2cc(Cl)ccc2F)cc1)NC(=O)c1[nH]nc(C2CC2)c1F)C(=O)O [Example 7-2, (2S,4S)-5-(5′-Chloro-2′-fluorobiphenyl-4-yl)-4-[(5-cyclopropyl-4-fluoro-2H-pyrazole-3-carbonyl)amino]-2-ethoxymethylpentanoic acid]"
> 10%,≧9.0,"CCOC[C@H](C[C@@H](Cc1ccc(-c2cc(Cl)ccc2F)cc1)NC(=O)c1cc(O)no1)C(=O)O [Example 7-4, (2S,4S)-5-(5′-Chloro-2′-fluoro-biphenyl-4-yl)-2-ethoxymethyl-4-[(3-hydroxy-isoxazole-5-carbonyl)amino]pentanoic acid]"

# Further lines, the molecule ahead of its results:
SMILES,bioavailability [1],pKi [2]
"COC[C@H](C[C@@H](Cc1ccc(-c2cc(Cl)ccc2F)cc1)NC(=O)c1cc(OC)no1)C(=O)O [Example 2-6, (2S,4S)-5-(5′-Chloro-2′-fluorobiphenyl-4-yl)-4-[(3-methoxyisoxazole-5-carbonyl)-amino]-2-methoxymethylpentanoic acid]",> 10%,≧9.0
"COC[C@H](C[C@@H](Cc1ccc(-c2cc(Cl)ccc2F)cc1)NC(=O)c1cocn1)C(=O)O [Example 2-8, (2S,4S)-5-(5′-Chloro-2′-fluorobiphenyl-4-yl)-2-methoxymethyl-4-[(oxazole-4-carbonyl)amino]pentanoic acid]",> 10%,≧9.0
"COC[C@H](C[C@@H](Cc1ccc(-c2cc(Cl)ccc2F)cc1)NC(=O)c1coc(C2CC2)n1)C(=O)O [Example 2-9, (2S,4S)-5-(5′-Chloro-2′-fluorobiphenyl-4-yl)-4-[(2-cyclopropyloxazole-4-carbonyl)amino]-2-methoxymethylpentanoic acid]",> 10%,≧9.0
"COC[C@H](C[C@@H](Cc1ccc(-c2cc(Cl)ccc2F)cc1)NC(=O)c1ncccn1)C(=O)O [Example 2-13, (2S,4S)-5-(5′-Chloro-2′-fluorobiphenyl-4-yl)-2-methoxymethyl-4-[(pyrimidine-2-carbonyl)amino]pentanoic acid]",> 10%,≧9.0
"COC[C@H](C[C@@H](Cc1ccc(-c2cc(Cl)ccc2F)cc1)NC(=O)c1ncc(C)o1)C(=O)O [Example 2-15, (2S,4S)-5-(5′-Chloro-2′-fluorobiphenyl-4-yl)-2-methoxymethyl-4-[(5-methyloxazole-2-carbonyl)amino]pentanoic acid]",> 10%,≧9.0
"CCOc1cc(C(=O)N[C@H](Cc2ccc(-c3cc(Cl)ccc3F)cc2)C[C@@H](COC)C(=O)O)n[nH]1 [Example 2-16, (2S,4S)-5-(5′-Chloro-2′-fluorobiphenyl-4-yl)-4-[(5-ethoxy-1H-pyrazole-3-carbonyl)amino]-2-methoxymethylpentanoic acid]",> 10%,≧9.0
"COC[C@H](C[C@@H](Cc1ccc(-c2cccc(Cl)c2)cc1)NC(=O)c1cnn[nH]1)C(=O)O [Example 3, (2S,4S)-5-(3′-Chlorobiphenyl-4-yl)-2-methoxymethyl-4-[(3H-[1,2,3]triazole-4-carbonyl)amino]pentanoic Acid]",> 10%,≧9.0
"COC[C@H](C[C@@H](Cc1ccc(-c2ccccc2)cc1)NC(=O)c1c[nH]nn1)C(=O)O [Example 5, (2S,4S)-5-Biphenyl-4-yl-2-methoxymethyl-4-[(1H-[1,2,3]-triazole-4-carbonyl)amino]pentanoic Acid]",> 10%,≧9.0
